In patent US4390526A, “Pharmaceutical agents for the treatment of sickle cell disease” (Yeda Research & Development Co. Ltd., priority 1979, dated 1983):
Where a SMILES comes first, the peptide text is derived from it.

How the values were obtained:
erythrocytes [1] = conditions: literature values, Table II; cited from earlier work
purified HbS = molecular target: T1, purified HbS (Homo sapiens, UniProt P68871, E7V); assay: Determination of antigelling property (modified method of Bookchin et al.); assay type: biochemical; conditions: deoxygenated with sodium dithionite, 37° C.; antigelling = fluid state for more than 20 minutes
T1 construct: 150 μl of 35% of purified HbS were added and vortexed; from tissue
Description: The antigelling property of the said new class of compounds was determined by a modified method of Bookchin et al. (1967); (see Bookchin et al, J. Biol. Chem., 242, 248-255, 1967). To 10 μl of a solution of the said new class of compounds in a micro test tube, at about 37° C., 150 μl of 35% of purified HbS were added and vortexed. 15 microliters of a 10% sodium dithionite in 0.05 M phosphate buffer, pH 7.2 were added. The mixture was thoroughly mixed and flushed with nitrogen and quickly stoppered. The micro test tube was incubated at 37° C. for 30 minutes and then transferred to 0° C. for 10 minutes and then returned to 37° C. for 30 minutes. A compound was defined as having antigelling properties when the HbS inhibition mixture remained in the fluid state for a period of more than 20 minutes at 37° C.

[2] = system: erythrocytes of a sickle cell disease patient; assay: Inhibition of sickling; assay type: cell-based, human; conditions: 30 minutes, deoxygenated with sodium metabisulphite
Description: A venous blood sample was obtained from the anticubital vein of a sickle cell disease patient and washed several times with phosphate buffer saline, pH 7.2, consisting of 145.4 mM NaCl, 4.0 mM KCl, 1.65 mM Na2 HPO4, 0.16 mM KH2 PO4, 0.01 mM MgCl2 and 11.1 mM glucose. The buffy coats were removed by aspiration. […] The mixture was well stoppered, incubated at 37° C. and swirled at about 100 cycles per minute in a controlled environment incubator. The standard control consisted of a 300 μl of a 20% cell suspension in the buffer in which the novel compound was dissolved. After an incubation period, 20 μl of the treated cell suspension was deoxygenated with 20 μl of 2.0% sodium metabisulphite or with nitrogen gas and examined with a Zeiss microscope.
[…] They were deoxygenated with sodium metabisulphite and examined under a Zeiss microscope.

erythrocytes [3] = assay: Transport of the novel compounds into erythrocytes; assay type: cell-based, human
Description: As sickle cell disease is caused by a defect of the erythrocytes, in order to study transport of a therapeutic agent for the treatment of the disease into erythrocytes, erythrocytes and no other cells must be used for the transport studies.
Washed erythrocytes were prepared by the method described in Example 2 and used for transport studies. The novel class of compounds were radioactively labelled, using for example, [^14 C]-L-Phe.

With `O=CC(O)CO` (racemic) [DL--Glyceraldehyde] as the compound, how does the “Effective Concentration In Vitro (antisickling)” value (“Effective Concentration In Vitro” below) (erythrocytes [1]) read?
Its value is 20 mM.

For `O=C(Nc1ccccn1)c1ccccc1.O=C(O)c1ccccc1` [2(Benzoyl amino) pyridinium benzoate], which “Effective Concentration In Vitro” value (erythrocytes [1]) is on record?
The value was 50 mM.

For `CC1(C)CCc2cc(CCCC(=O)O)ccc2O1` [3,4-dihydro-2,2-dimethyl 2H-1 Benzopyridirium-6-butyric acid], which “Effective Concentration In Vitro” value (erythrocytes [1]) is on record?
Its value is 10 mM.

What does the source list for `Cl.N[C@@H](Cc1ccccc1)C(=O)OCc1ccccc1` [Compound 1, L--Phe--OBz.HCl]?
moles of compound to one mole of HbS at which gelation of HbS is inhibited (purified HbS): 6 moles to one mole HbS; Percentage of Normal Cells ([2]; 3 mM of the compound): 90%; transport into erythrocytes (erythrocytes [3]): rapidly transported into erythrocytes by a carrier mediated process; Michaelis constant for transport (erythrocytes [3]; 14C-labelled compound, washed erythrocytes): 0.175 mM; PERCENT OF INCORPORATION (erythrocytes [3]; TIME 0): 0%; PERCENT OF INCORPORATION (erythrocytes [3]; TIME 10): 30%; PERCENT OF INCORPORATION (erythrocytes [3]; TIME 20): 70%; PERCENT OF INCORPORATION (erythrocytes [3]; TIME 30): 90%; PERCENT OF INCORPORATION (erythrocytes [3]; TIME 45): 100%; PERCENT OF INCORPORATION (erythrocytes [3]; TIME 60): 90%

For `Cl.N[C@@H](Cc1ccc(O)cc1)C(=O)OCc1ccccc1` [Compound 2, L--Tyr--OBz.HCl], which “Percentage of Normal Cells” value ([2]; 0.5 mM of compound) is on record?
The value was 70%.

For `Cl.N[C@@H](Cc1c[nH]c2ccccc12)C(=O)OCc1ccccc1` [Compound 3, L--Try--OBz.HCl], which “moles of compound to one mole of HbS at which gelation of HbS is inhibited” value (purified HbS) is on record?
Its value is 4 moles to one mole HbS.

What about the “Percentage of Normal Cells” value ([2]; 0.5 mM of compound) of the same compound?
The value was 95%.

With `Cl.O=C(OCc1ccccc1)[C@@H]1CCCN1` [Compound 4, L--Pro--OBz.HCl] as the compound, how does the “Percentage of Normal Cells” value ([2]; 3 mM of the compound) read?
The value was 60%.

Which “Percentage of Normal Cells” value ([2]; 3 mM of the compound) does the source give for `Br.N[C@@H](Cc1ccccc1)C(=O)OCc1ccc([N+](=O)[O-])cc1` [Compound 6, L--Phe--OBz (pNO2).HBr] here?
Its value is 90%.

With `Br.O=C(OCc1ccc([N+](=O)[O-])cc1)[C@@H]1CCCN1` [Compound 7, L--Pro--OBz (pNO2).HBr] as the compound, how does the “Percentage of Normal Cells” value ([2]; 3 mM of the compound) read?
Its value is 80%.

With `Cc1ccc(S(=O)(=O)O)cc1.NC(Cc1c[nH]cn1)C(=O)OCc1ccc([N+](=O)[O-])cc1` [Compound 8, L--His--OBz (pNO2) pTS] as the compound, how does the “Percentage of Normal Cells” value ([2]; 3 mM of the compound) read?
Its value is 70%.

For `Br.C[C@H](N)C(=O)N[C@@H](Cc1ccccc1)C(=O)OCc1ccccc1` [Compound 9, L--Ala--L--Phe--OBz.HBr], which “Percentage of Normal Cells” value ([2]; 3 mM of the compound) is on record?
Its value is 90%.

Which “Percentage of Normal Cells” value ([2]; 3 mM of the compound) does the source give for `Br.NCC(=O)N[C@@H](Cc1ccccc1)C(=O)OCc1ccccc1` [Compound 10, L--Gly--L--Phe--OBz.HBr] (HELM PEPTIDE1{G.F.[c1ccc(CO[*:1])cc1]}$$$$V2.0) here?
Its value is 90%.

For `N[C@@H](Cc1ccccc1)C(=O)NCc1ccccc1` [Compound 11, L--Phe--Benzyl amide], which “Percentage of Normal Cells” value ([2]; 3 mM of the compound) is on record?
The value was 70%.

Which “Percentage of Normal Cells” value ([2]; 3 mM of the compound) does the source give for `CC(C)[C@H](N)C(=O)OCc1ccccc1` [Compound 12, L--Val--OBz] here?
The value was 50%.

With `CC(C)C[C@H](N)C(=O)OCc1ccccc1` [Compound 13, L--Leu--OBz] as the compound, how does the “Percentage of Normal Cells” value ([2]; 3 mM of the compound) read?
Its value is 55%.

With `Br.CC(NC(=O)C(N)Cc1ccccc1)C(=O)OCc1ccccc1` [Compound 14, L--Phe--L--Ala--OBz.HBr] as the compound, how does the “Percentage of Normal Cells” value ([2]; 3 mM of the compound) read?
The value was 70%.

Which “Percentage of Normal Cells” value ([2]; 3 mM of the compound) does the source give for `Br.NCCCC[C@H](NC(=O)[C@@H](N)Cc1c[nH]c2ccccc12)C(=O)OCc1ccccc1` [Compound 15, L--Try--Lys--OBz.HBr] (HELM PEPTIDE1{W.K.[c1ccc(CO[*:1])cc1]}$$$$V2.0) here?
The value was 70%.

For `Cl.N[C@H](Cc1ccccc1)C(=O)OCc1ccccc1` [Compound 16, D--Phe--OBz.HCl], which “moles of compound to one mole of HbS at which gelation of HbS is inhibited” value (purified HbS) is on record?
The value was 6 moles to one mole HbS.

What about the “Percentage of Normal Cells” value ([2]; 3 mM of the compound) of the same compound?
Its value is 90%.

With `CCCCCCCCCCCCCCCCCCOC(=O)[C@@H](N)Cc1ccc(O)cc1.Cl` [Compound 17, L--Tyr--O Octadecyl.HCl, reference compound] as the compound, how does the “Percentage of Normal Cells” value ([2]; 3 mM of the compound) read?
Its value is 10%.

Which “Percentage of Normal Cells” value ([2]; 3 mM of the compound) does the source give for `N[C@@H](Cc1ccccc1)C(=O)O` [Compound 18, L--Phe, reference compound] here?
Its value is 0%.

With `NCCSSCCN` [Cystamine] as the compound, how does the “Effective Concentration In Vitro” value (erythrocytes [1]) read?
Its value is 220 mM.

For `CC(=O)Oc1c(Br)cc(Br)cc1C(=O)O` [Dibromo aspirin], which “Effective Concentration In Vitro” value (erythrocytes [1]) is on record?
The value was 5 mM.

Which “Effective Concentration In Vitro” value (erythrocytes [1]) does the source give for `COC(=N)CCCCC(=N)OC` [Dimethyl Adipimidate] here?
Its value is 10 mM.

Which “Effective Concentration In Vitro” value (erythrocytes [1]) does the source give for `N#C[O-].[K+]` [Potassium Cyanate] here?
The value was 100 mM.

With `Cc1ncc(CO)c(C=O)c1O` [Pyridoxal] as the compound, how does the “Effective Concentration In Vitro” value (erythrocytes [1]) read?
Its value is 20 mM.

For `NC(N)=O` [Urea], which “Effective Concentration In Vitro” value (erythrocytes [1]) is on record?
The value was 100 mM.
